Test results reported in patent US10344026B2, “Compositions and methods of targeting mutant K-ras” (NANTBIO, INC., priority 2017, dated 2019).

Assays:
Assay type in all cases: cell-based
[1] = molecular target: T1, wild type K-Ras (Homo sapiens, UniProt P01116); assay: G-LISA Ras activation, 293H cells transfected with Ras wild-type, EGF stimulated; details: compound 1 hour, then 100 ng/ml EGF 2 minutes
T1 construct: expressed in transfected cells; host or cells: 293H cells
Procedure, shortened: (§1)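 Active Ras was quantified by G-LISA in lysates of 293H cells made the day after transfection with wild-type, G12D or G12V Ras plasmid (5 μg). Compounds were applied at 3.125-25 μM for 1 h; only the wild-type cells got a 2-min 100 ng/ml EGF pulse before lysis.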

[2] = molecular target: T2, K-Ras G12D (Homo sapiens, UniProt P01116, G12D); assay: G-LISA Ras activation, 293H cells transfected with G12D mutant; details: compound 1 hour
T2 construct: expressed in transfected cells; host or cells: 293H cells
Procedure, shortened: as §1

[3] = system: Ishikawa (K-Ras wild type cell line); assay: Viability assay (CellTiterBlue, 72 hr) Ishikawa; details: Homo sapiens, GI50, CellTiterBlue, Ishikawa K-Ras wild-type
Procedure, shortened: (§2)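 Each line was plated at 1000 cells per well and incubated for 72 hr with compound after an 18 hr settling period. CellTiterBlue fluorescence measured the result, and GI50 was fitted relative to DMSO and tamoxifen controls.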

[4] = system: U87-MG (K-Ras wild type cell line); assay: Viability assay (CellTiterBlue, 72 hr) U87-MG; details: Homo sapiens, U-87 MG, GI50, CellTiterBlue, U87-MG K-Ras wild-type
Procedure, shortened: as §2

[5] = system: HCC827 (K-Ras wild type cell line); assay: Viability assay (CellTiterBlue, 72 hr) HCC827; details: Homo sapiens, GI50, CellTiterBlue, HCC827 K-Ras wild-type
Procedure, shortened: as §2

[6] = system: A375 (K-Ras wild type cell line); assay: Viability assay (CellTiterBlue, 72 hr) A375; details: Homo sapiens, A-375, GI50, CellTiterBlue
Procedure, shortened: as §2

[7] = system: Panc1-G12D; assay: Viability assay (CellTiterBlue, 72 hr) Panc1; details: Homo sapiens, PANC-1, GI50, CellTiterBlue, Panc1 K-Ras G12D, read-out: 72 hr Cell Viability Panc1 (G12D)
Procedure, shortened: as §2

[8] = system: Panc10.05-G12D; assay: Viability assay (CellTiterBlue, 72 hr) Panc10.05; details: Homo sapiens, Panc1005, GI50, CellTiterBlue, Panc10.05 K-Ras G12D, read-out: 72 hr Cell Viability Panc10.05 (G12D)
Procedure, shortened: as §2

[9] = system: HCT116-G31D; assay: Viability assay (CellTiterBlue, 72 hr) HCT116; details: Homo sapiens, HCT-116, GI50, CellTiterBlue, HCT116 K-Ras G13D, read-out: 72 hr Cell Viability HCT116 (G13D)
Procedure, shortened: as §2

[10] = system: phospho-ERK in HCC827 (Wild-type); assay: In-Cell Western phospho-ERK, HCC827; details: Homo sapiens, 1 h; HCC827, one hour treatment; read-out: In-Cell Western HCC827 (Wild-type) Erk (P)
Procedure, shortened: (§3)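 3000 cells/well, 18 hr pre-incubation; 1 hr compound exposure, 0.5% DMSO final. Formaldehyde fix, Triton permeabilization, primary Ab overnight 4° C, secondary 2 hr. Fluorescence imaging; EC50.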

[11] = system: phospho-Akt in HCC827 (Wild-type); assay: In-Cell Western phospho-Akt, HCC827; details: Homo sapiens, 1 h; HCC827, one hour treatment; read-out: In-Cell Western HCC827 (Wild-type) Akt (P)
Procedure: In-cell phosphorylation assays for Erk and Akt were performed on several of the compounds and exemplary results are shown in Table 3 below using HCC827 and A375 cell lines for wild type K-Ras and Panc1 and Panc10.05 cell lines for G12D K-Ras mutants. Results are expressed in μM and corresponding structures are shown in FIGS. 2A-2G and Examples 1-152, above.
Cells are seeded in complete medium into black sided, clear-bottom 384-well microplates at 3000 cells/[…]/well. Plates are returned to 37° C. CO2 incubator for 18 hr. Drug is made as 200× in DMSO and diluted into medium to 10×. To each well is added 4 ul 10× test article or controls, and plates are returned to the incubator. Final assay DMSO concentration is 0.5%. After one hour, cells are fixed in formaldehyde, rinsed & permeabilized with triton X-100, and blocked with BSA/Goat serum blocking solution. Primary phospho-Akt and phospho-ERK antibodies are added and plates are incubated overnight at 4° C. Plates are rinsed with Tween-20 wash buffer and secondary antibody (Goat anti-rabbit, Thermofisher) is added. After 2 hours, plates are rinsed in Tween-20 wash buffer, and then PBS. Plates are imaged on the Celigo (Nexcelom) and cellular fluorescence is quantitated. Full inhibition of phospho-Akt is achieved with 1 uM BEZ235 (Sellekchem), while full inhibition of phospho-ERK is achieved with 1 uM MEK Inhibitor II Calbiochem). EC50 values are calculated using Graphpad Prism.

[12] = system: phospho-ERK in A375 (Wild-type); assay: In-Cell Western phospho-ERK, A375; details: Homo sapiens, A-375, 1 h; A375, one hour treatment; read-out: In-Cell Western A375 (Wild-type) Erk (P)
Procedure, shortened: as §3

[13] = system: phospho-Akt in A375 (Wild-type); assay: In-Cell Western phospho-Akt, A375; details: Homo sapiens, A-375, 1 h; A375, one hour treatment; read-out: In-Cell Western A375 (Wild-type) Akt (P)
Procedure, shortened: as §3

[14] = system: phospho-ERK in Panc1 (G12D); assay: In-Cell Western phospho-ERK, Panc1; details: Homo sapiens, PANC-1, 1 h; Panc1, one hour treatment; read-out: In-Cell Western Panc1 (G12D) Erk (P)
Procedure, shortened: as §3

[15] = system: phospho-Akt in Panc1 (G12D); assay: In-Cell Western phospho-Akt, Panc1; details: Homo sapiens, PANC-1, 1 h; Panc1, one hour treatment; read-out: In-Cell Western Panc1 (G12D) Akt (P)
Procedure, shortened: as §3

[16] = system: phospho-ERK in Panc10.05 (G12D); assay: In-Cell Western phospho-ERK, Panc10.05; details: Homo sapiens, Panc1005, 1 h; Panc10.05, one hour treatment; read-out: In-Cell Western Panc10.05 (G12D) Erk (P)
Procedure, shortened: as §3

[17] = system: phospho-Akt in Panc10.05 (G12D); assay: In-Cell Western phospho-Akt, Panc10.05; details: Homo sapiens, Panc1005, 1 h; Panc10.05, one hour treatment; read-out: In-Cell Western Panc10.05 (G12D) Akt (P)
Procedure, shortened: as §3

T1 sequence (P01116 whole entry): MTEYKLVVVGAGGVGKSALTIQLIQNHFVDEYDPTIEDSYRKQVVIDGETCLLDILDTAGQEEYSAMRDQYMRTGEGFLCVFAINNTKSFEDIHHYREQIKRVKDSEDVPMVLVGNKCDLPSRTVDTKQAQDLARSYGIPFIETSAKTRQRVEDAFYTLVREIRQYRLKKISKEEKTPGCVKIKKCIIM
T2 sequence (P01116 whole entry G12D): as the sequence (P01116 whole entry) above, with G12D counted along it

| Structure (SMILES) | IC50 [1] [µM] | IC50 [2] [µM] | IC50 [3] [µM] | IC50 [4] [µM] | IC50 [5] [µM] | IC50 [6] [µM] | IC50 [7] [µM] | IC50 [8] [µM] | IC50 [9] [µM] | EC50 [10] [µM] | EC50 [11] [µM] | EC50 [12] [µM] | EC50 [13] [µM] | EC50 [14] [µM] | EC50 [15] [µM] | EC50 [16] [µM] | EC50 [17] [µM] |
| --- | --- | --- | --- | --- | --- | --- | --- | --- | --- | --- | --- | --- | --- | --- | --- | --- | --- |
| CCc1nc(C)c(C(=O)Nc2nc(-c3ccc4c(c3)CCC(=O)N4CCOC)cs2)o1 [Compound 110, 2-ethyl-N-(4-(1-(2-methoxyethyl)-2-oxo-1,2,3,4-tetrahydroquinolin-6-yl)thiazol-2-yl)-4-methyloxazole-5-carboxamide] | 6.8 | 3.9 | 10 | 17 | 4 | > 25 | 4 | 0.778 | > 25 | 4 | > 25 | 23 | > 25 | 3 | 23 | 1.3 | 3 |
| Cc1nc(C)c(C(=O)Nc2nc(-c3ccc4c(c3)CCC(=O)N4CCn3cncn3)cs2)o1 [Compound 108, N-(4-(1-(2-(1H-1,2,4-triazol-1-yl)ethyl)-2-oxo-1,2,3,4-tetrahydroquinolin-6-yl)thiazol-2-yl)-2,4-dimethyloxazole-5-carboxamide] |  | > 25 | > 25 | > 25 | > 25 | > 25 | > 25 | > 25 | > 25 | > 25 | > 25 | > 25 | > 25 | > 25 | > 25 | 21 | > 25 |
| Cc1nc(C)c(C(=O)Nc2nc(-c3ccc4c(c3)CCC(=O)N4Cc3nnn[nH]3)cs2)o1 [Compound 109, N-(4-(1-((1H-tetrazol-5-yl)methyl)-2-oxo-1,2,3,4-tetrahydroquinolin-6-yl)thiazol-2-yl)-2,4-dimethyloxazole-5-carboxamide] |  |  | > 25 | > 25 | > 25 | > 25 | > 25 | > 25 | > 25 | > 25 | > 25 | > 25 | > 25 | > 25 | > 25 | > 25 | > 25 |
| Cc1nc(C)c(C(=O)Nc2nc(-c3ccc4c(c3)CCC(=O)N4Cc3cccnc3)cs2)o1 [Compound 70, 2,4-dimethyl-N-(4-(2-oxo-1-(pyridin-3-ylmethyl)-1,2,3,4-tetrahydroquinolin-6-yl)thiazol-2-yl)oxazole-5-carboxamide] | > 25 | 8.3 | 24 |  | > 25 |  | 20 | 7 | > 25 | 22 | 19 |  |  | 10 | 22 | 25 | > 25 |
| COCCN1C(=O)CCc2cc(-c3csc(NC(=O)c4c(C)nn(C(C)C)c4C)n3)ccc21 [Compound 118, 1-isopropyl-N-(4-(1-(2-methoxyethyl)-2-oxo-1,2,3,4-tetrahydroquinolin-6-yl)thiazol-2-yl)-3,5-dimethyl-1H-pyrazole-4-carboxamide] |  | 4.3 | 4 | 8 | 2 | 9 | 2 | 0.854 | 18 | 1.2 | > 25 | 10 | 23 | 6 | 26 | 0.969 | 2 |
| Cc1nc(C)c(C(=O)Nc2nc(-c3ccc4c(c3)CCC(=O)N4CC3CCOC3)cs2)o1 (centres unmarked) [Compound 67, 2,4-dimethyl-N-(4-(2-oxo-1-((tetrahydrofuran-3-yl)methyl)-1,2,3,4-tetrahydroquinolin-6-yl)thiazol-2-yl)oxazole-5-carboxamide] | > 25 | 8 | 2 |  | 3 |  | 4 | 2 | 2 | 4 | 10 |  |  | 3 |  | 6 | 23 |
| Cc1nc(C)c(C(=O)Nc2nc(-c3ccc4c(c3)CCC(=O)N4CC3CC3)cs2)o1 [Compound 68, N-(4-(1-(cyclopropylmethyl)-2-oxo-1,2,3,4-tetrahydroquinolin-6-yl)thiazol-2-yl)-2,4-dimethyloxazole-5-carboxamide] | 16.7 | 10.3 | 3 |  | 5 |  | 8 | 3 | 5 | 6 | 13 |  |  | 5 | 4 | 7 | 23 |
| Cc1nc(C2CC2)oc1C(=O)Nc1nc(-c2ccc3c(c2)CCC(=O)N3Cc2cccnc2)cs1 [Compound 72, 2-cyclopropyl-4-methyl-N-(4-(2-oxo-1-(pyridin-3-ylmethyl)-1,2,3,4-tetrahydroquinolin-6-yl)thiazol-2-yl)oxazole-5-carboxamide] | 8 | 8 | 2 |  | > 25 |  | 13 | 2 | > 25 | 14 | 19 |  |  | 3 | 2 | 5 | 19 |
| CCc1cc(C(=O)Nc2nc(-c3ccc4c(c3)CCC(=O)N4)cs2)n(C)n1 [Compound 24, 3-ethyl-1-methyl-N-(4-(2-oxo-1,2,3,4-tetrahydroquinolin-6-yl)thiazol-2-yl)-1H-pyrazole-5-carboxamide] | 7.6 | 9.9 | > 25 | > 25 | > 25 | > 25 | 0.672 | 2.76 | > 25 | > 25 | > 25 | > 25 |  | > 25 | > 25 | > 25 | 13 |
